Test results taken from the supplement of paper PMC9912026.

System: A375_aEGFR2
Test: pERK immunofluorescence normalised to no-drug reference (=1); higher = more ERK phosphorylation (less pathway inhibition)
Conditions: drug treatment time 24 h, EGF time 8 h
Description: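 A375 CRISPRa-EGFR (A375_aEGFR2) or HT29 cells were treated with two-drug dose combinations (vemurafenib, LY3009120, cobimetinib) for 24 h, then stimulated with EGF (100 ng/mL) or mock medium for 8 h. pERK (T202/Y204) was measured by immunofluorescence as the cytosolic population average, normalised to an untreated no-drug reference of the block (=1). Averages of 2 technical replicates. A375 in 5% FBS, HT29 in 10% FBS.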

CCCS(=O)(=O)Nc1ccc(F)c(C(=O)c2c[nH]c3ncc(-c4ccc(Cl)cc4)cc23)c1F [Vemurafenib] + O=C(c1ccc(F)c(F)c1Nc1ccc(I)cc1F)N1CC(O)([C@@H]2CCCCN2)C1 [Cobimetinib]
pERK immunofluorescence normalised
Conditions | EGF 0 ng/mL | EGF 100 ng/mL
drug A concentration 0 µM, drug B concentration 31.62 pM | 1.03 | 1.05
drug A concentration 0 µM, drug B concentration 0.0001 µM | 1 | 1.07
drug A concentration 0 µM, drug B concentration 0.000316228 µM | 1 | 1.02
drug A concentration 0 µM, drug B concentration 0.001 µM | 0.917 | 1.01
drug A concentration 0 µM, drug B concentration 0.00316228 µM | 0.732 | 0.906
drug A concentration 0 µM, drug B concentration 0.01 µM | 0.399 | 0.695
drug A concentration 0 µM, drug B concentration 0.0316228 µM | 0.188 | 0.526
drug A concentration 0 µM, drug B concentration 0.1 µM | 0.147 | 0.468
drug A concentration 0 µM, drug B concentration 0.316228 µM | 0.141 | 0.347
drug A concentration 0 µM, drug B concentration 1 µM | 0.137 | 0.196
drug A concentration 0.000316228 µM, drug B concentration 0 µM | 1.01 | 1.04
drug A concentration 0.000316228 µM, drug B concentration 31.62 pM | 1.01 | 1.03
drug A concentration 0.000316228 µM, drug B concentration 0.0001 µM | 1.01 | 1.02
drug A concentration 0.000316228 µM, drug B concentration 0.000316228 µM | 0.984 | 1.02
drug A concentration 0.000316228 µM, drug B concentration 0.001 µM | 0.915 | 0.936
drug A concentration 0.000316228 µM, drug B concentration 0.00316228 µM | 0.687 | 0.804
drug A concentration 0.000316228 µM, drug B concentration 0.01 µM | 0.383 | 0.605
drug A concentration 0.000316228 µM, drug B concentration 0.0316228 µM | 0.175 | 0.498
drug A concentration 0.000316228 µM, drug B concentration 0.1 µM | 0.152 | 0.425
drug A concentration 0.000316228 µM, drug B concentration 0.316228 µM | 0.138 | 0.289
drug A concentration 0.000316228 µM, drug B concentration 1 µM | 0.14 | 0.179
drug A concentration 0.001 µM, drug B concentration 0 µM | 1.01 | 1.05
drug A concentration 0.001 µM, drug B concentration 31.62 pM | 1.02 | 1.04
drug A concentration 0.001 µM, drug B concentration 0.0001 µM | 1.01 | 1.02
drug A concentration 0.001 µM, drug B concentration 0.000316228 µM | 0.958 | 1.05
drug A concentration 0.001 µM, drug B concentration 0.001 µM | 0.857 | 0.99
drug A concentration 0.001 µM, drug B concentration 0.00316228 µM | 0.631 | 0.816
drug A concentration 0.001 µM, drug B concentration 0.01 µM | 0.328 | 0.621
drug A concentration 0.001 µM, drug B concentration 0.0316228 µM | 0.172 | 0.518
drug A concentration 0.001 µM, drug B concentration 0.1 µM | 0.142 | 0.443
drug A concentration 0.001 µM, drug B concentration 0.316228 µM | 0.139 | 0.3
drug A concentration 0.001 µM, drug B concentration 1 µM | 0.137 | 0.172
drug A concentration 0.00316228 µM, drug B concentration 0 µM | 1.02 | 1.06
drug A concentration 0.00316228 µM, drug B concentration 31.62 pM | 0.976 | 1.05
drug A concentration 0.00316228 µM, drug B concentration 0.0001 µM | 0.987 | 1.06
drug A concentration 0.00316228 µM, drug B concentration 0.000316228 µM | 0.943 | 0.991
drug A concentration 0.00316228 µM, drug B concentration 0.001 µM | 0.874 | 0.935
drug A concentration 0.00316228 µM, drug B concentration 0.00316228 µM | 0.623 | 0.81
drug A concentration 0.00316228 µM, drug B concentration 0.01 µM | 0.306 | 0.625
drug A concentration 0.00316228 µM, drug B concentration 0.0316228 µM | 0.164 | 0.525
drug A concentration 0.00316228 µM, drug B concentration 0.1 µM | 0.149 | 0.435
drug A concentration 0.00316228 µM, drug B concentration 0.316228 µM | 0.141 | 0.285
drug A concentration 0.00316228 µM, drug B concentration 1 µM | 0.138 | 0.166
drug A concentration 0.01 µM, drug B concentration 0 µM | 0.986 | 1.03
drug A concentration 0.01 µM, drug B concentration 31.62 pM | 0.927 | 1.02
drug A concentration 0.01 µM, drug B concentration 0.0001 µM | 0.905 | 0.991
drug A concentration 0.01 µM, drug B concentration 0.000316228 µM | 0.875 | 1.01
drug A concentration 0.01 µM, drug B concentration 0.001 µM | 0.814 | 0.909
drug A concentration 0.01 µM, drug B concentration 0.00316228 µM | 0.534 | 0.765
drug A concentration 0.01 µM, drug B concentration 0.01 µM | 0.292 | 0.613
drug A concentration 0.01 µM, drug B concentration 0.0316228 µM | 0.198 | 0.503
drug A concentration 0.01 µM, drug B concentration 0.1 µM | 0.144 | 0.417
drug A concentration 0.01 µM, drug B concentration 0.316228 µM | 0.139 | 0.29
drug A concentration 0.01 µM, drug B concentration 1 µM | 0.138 | 0.165
drug A concentration 0.0316228 µM, drug B concentration 0 µM | 0.881 | 1
drug A concentration 0.0316228 µM, drug B concentration 31.62 pM | 0.842 | 0.991
drug A concentration 0.0316228 µM, drug B concentration 0.0001 µM | 0.795 | 0.944
drug A concentration 0.0316228 µM, drug B concentration 0.000316228 µM | 0.753 | 0.892
drug A concentration 0.0316228 µM, drug B concentration 0.001 µM | 0.666 | 0.834
drug A concentration 0.0316228 µM, drug B concentration 0.00316228 µM | 0.441 | 0.692
drug A concentration 0.0316228 µM, drug B concentration 0.01 µM | 0.228 | 0.567
drug A concentration 0.0316228 µM, drug B concentration 0.0316228 µM | 0.161 | 0.495
drug A concentration 0.0316228 µM, drug B concentration 0.1 µM | 0.145 | 0.414
drug A concentration 0.0316228 µM, drug B concentration 0.316228 µM | 0.14 | 0.282
drug A concentration 0.0316228 µM, drug B concentration 1 µM | 0.138 | 0.164
drug A concentration 0.1 µM, drug B concentration 0 µM | 0.659 | 0.851
drug A concentration 0.1 µM, drug B concentration 31.62 pM | 0.542 | 0.79
drug A concentration 0.1 µM, drug B concentration 0.0001 µM | 0.539 | 0.787
drug A concentration 0.1 µM, drug B concentration 0.000316228 µM | 0.489 | 0.774
drug A concentration 0.1 µM, drug B concentration 0.001 µM | 0.404 | 0.672
drug A concentration 0.1 µM, drug B concentration 0.00316228 µM | 0.285 | 0.615
drug A concentration 0.1 µM, drug B concentration 0.01 µM | 0.186 | 0.553
drug A concentration 0.1 µM, drug B concentration 0.0316228 µM | 0.149 | 0.525
drug A concentration 0.1 µM, drug B concentration 0.1 µM | 0.146 | 0.407
drug A concentration 0.1 µM, drug B concentration 0.316228 µM | 0.14 | 0.283
drug A concentration 0.1 µM, drug B concentration 1 µM | 0.14 | 0.161
drug A concentration 0.316228 µM, drug B concentration 0 µM | 0.362 | 0.697
drug A concentration 0.316228 µM, drug B concentration 31.62 pM | 0.311 | 0.647
drug A concentration 0.316228 µM, drug B concentration 0.0001 µM | 0.28 | 0.635
drug A concentration 0.316228 µM, drug B concentration 0.000316228 µM | 0.264 | 0.643
drug A concentration 0.316228 µM, drug B concentration 0.001 µM | 0.235 | 0.6
drug A concentration 0.316228 µM, drug B concentration 0.00316228 µM | 0.187 | 0.584
drug A concentration 0.316228 µM, drug B concentration 0.01 µM | 0.161 | 0.557
drug A concentration 0.316228 µM, drug B concentration 0.0316228 µM | 0.146 | 0.502
drug A concentration 0.316228 µM, drug B concentration 0.1 µM | 0.142 | 0.388
drug A concentration 0.316228 µM, drug B concentration 0.316228 µM | 0.139 | 0.27
drug A concentration 0.316228 µM, drug B concentration 1 µM | 0.139 | 0.157
drug A concentration 1 µM, drug B concentration 0 µM | 0.211 | 0.639
drug A concentration 1 µM, drug B concentration 31.62 pM | 0.195 | 0.623
drug A concentration 1 µM, drug B concentration 0.0001 µM | 0.192 | 0.614
drug A concentration 1 µM, drug B concentration 0.000316228 µM | 0.189 | 0.614
drug A concentration 1 µM, drug B concentration 0.001 µM | 0.175 | 0.603
drug A concentration 1 µM, drug B concentration 0.00316228 µM | 0.169 | 0.615
drug A concentration 1 µM, drug B concentration 0.01 µM | 0.147 | 0.571
drug A concentration 1 µM, drug B concentration 0.0316228 µM | 0.142 | 0.494
drug A concentration 1 µM, drug B concentration 0.1 µM | 0.141 | 0.382
drug A concentration 1 µM, drug B concentration 0.316228 µM | 0.138 | 0.245
drug A concentration 1 µM, drug B concentration 1 µM | 0.141 | 0.153
drug A concentration 3.16228 µM, drug B concentration 0 µM | 0.171 | 0.647
drug A concentration 3.16228 µM, drug B concentration 31.62 pM | 0.161 | 0.666
drug A concentration 3.16228 µM, drug B concentration 0.0001 µM | 0.172 | 0.648
drug A concentration 3.16228 µM, drug B concentration 0.000316228 µM | 0.158 | 0.647
drug A concentration 3.16228 µM, drug B concentration 0.001 µM | 0.152 | 0.635
drug A concentration 3.16228 µM, drug B concentration 0.00316228 µM | 0.147 | 0.614
drug A concentration 3.16228 µM, drug B concentration 0.01 µM | 0.146 | 0.532
drug A concentration 3.16228 µM, drug B concentration 0.0316228 µM | 0.14 | 0.464
drug A concentration 3.16228 µM, drug B concentration 0.1 µM | 0.139 | 0.305
drug A concentration 3.16228 µM, drug B concentration 0.316228 µM | 0.139 | 0.179
drug A concentration 3.16228 µM, drug B concentration 1 µM | 0.14 | 0.138
drug A concentration 10 µM, drug B concentration 0 µM | 0.154 | 0.664
drug A concentration 10 µM, drug B concentration 31.62 pM | 0.152 | 0.616
drug A concentration 10 µM, drug B concentration 0.0001 µM | 0.148 | 0.612
drug A concentration 10 µM, drug B concentration 0.000316228 µM | 0.149 | 0.579
drug A concentration 10 µM, drug B concentration 0.001 µM | 0.147 | 0.584
drug A concentration 10 µM, drug B concentration 0.00316228 µM | 0.149 | 0.546
drug A concentration 10 µM, drug B concentration 0.01 µM | 0.147 | 0.476
drug A concentration 10 µM, drug B concentration 0.0316228 µM | 0.141 | 0.36
drug A concentration 10 µM, drug B concentration 0.1 µM | 0.14 | 0.209
drug A concentration 10 µM, drug B concentration 0.316228 µM | 0.141 | 0.146
drug A concentration 10 µM, drug B concentration 1 µM | 0.146 | 0.138
